Data taken from ChEMBL document CHEMBL3045571, “Repellent activity of essential oils and some of their individual constituents against Tribolium castaneum herbst” (J Agric Food Chem, 2011).

tested on: Tribolium castaneum; assay: Repellent activity against Tribolium castaneum (red flour beetle) assessed as induction of repellency measured 4 hr post compound exposure at 0.002 uL/cm2 using 15% compound formulation; assay type: functional; details: not given

Compound	Repellency [%]
CCCCN(CCC(=O)OCC)C(C)=O	40
C=C(C)[C@H]1CC=C(C)C(=O)C1 [(S)(+)CARVONE]	30
O=C(OCc1ccccc1)c1ccccc1 [BENZYL BENZOATE]	23
O=C(OCc1ccccc1)c1ccccc1O [BENZYL SALICYLATE]	46
Cc1ccc(C(C)C)cc1O [CARVACROL]	-6
CC(C)=CCC/C(C)=C/C=O [CITRAL]	55
CC(C)=CCCC(C)CCO (configuration not stated) [CITRONELLOL]	60
CC(C)=CCC/C(C)=C/CO [GERANIOL]	58
CC(=O)OC/C=C(\C)CCC=C(C)C [GERANYL ACETATE]	24
C=C(C)[C@@H]1CC=C(C)C(=O)C1 [L-CARVONE]	68
C=CC(=C)CCC=C(C)C [MYRCENE]	65
CC(C)=CCC/C(C)=C\CO [NEROL]	60
Cc1ccc(C(C)C)cc1 [P-CYMENE]	44

tested on: Tribolium castaneum; assay: Repellent activity against Tribolium castaneum (red flour beetle) assessed as induction of repellency measured 4 hr post compound exposure at 0.2 uL/cm2 using 15% compound formulation; assay type: functional; details: not given

Compound	Repellency [%]
CCCCN(CCC(=O)OCC)C(C)=O	75
C=C(C)[C@H]1CC=C(C)C(=O)C1 [(S)(+)CARVONE]	94
O=C(OCc1ccccc1)c1ccccc1 [BENZYL BENZOATE]	91
O=C(OCc1ccccc1)c1ccccc1O [BENZYL SALICYLATE]	99
Cc1ccc(C(C)C)cc1O [CARVACROL]	90
CC(C)=CCC/C(C)=C/C=O [CITRAL]	98
CC(C)=CCCC(C)CCO (configuration not stated) [CITRONELLOL]	96
CC(C)=CCC/C(C)=C/CO [GERANIOL]	95
CC(=O)OC/C=C(\C)CCC=C(C)C [GERANYL ACETATE]	94
C=C(C)[C@@H]1CC=C(C)C(=O)C1 [L-CARVONE]	95
C=CC(=C)CCC=C(C)C [MYRCENE]	93
CC(C)=CCC/C(C)=C\CO [NEROL]	95
Cc1ccc(C(C)C)cc1 [P-CYMENE]	69

tested on: Tribolium castaneum; assay: Repellent activity against Tribolium castaneum (red flour beetle) assessed as induction of repellency measured 4 hr post compound exposure at 0.0002 uL/cm2 using 15% compound formulation; assay type: functional; details: not given

Compound	Repellency [%]
CCCCN(CCC(=O)OCC)C(C)=O	4
C=C(C)[C@H]1CC=C(C)C(=O)C1 [(S)(+)CARVONE]	21
O=C(OCc1ccccc1)c1ccccc1 [BENZYL BENZOATE]	18
O=C(OCc1ccccc1)c1ccccc1O [BENZYL SALICYLATE]	25
Cc1ccc(C(C)C)cc1O [CARVACROL]	8
CC(C)=CCC/C(C)=C/C=O [CITRAL]	51
CC(C)=CCCC(C)CCO (configuration not stated) [CITRONELLOL]	43
CC(C)=CCC/C(C)=C/CO [GERANIOL]	35
CC(=O)OC/C=C(\C)CCC=C(C)C [GERANYL ACETATE]	23
C=C(C)[C@@H]1CC=C(C)C(=O)C1 [L-CARVONE]	44
C=CC(=C)CCC=C(C)C [MYRCENE]	30
CC(C)=CCC/C(C)=C\CO [NEROL]	30
Cc1ccc(C(C)C)cc1 [P-CYMENE]	-8

tested on: Tribolium castaneum; assay: Repellent activity against Tribolium castaneum (red flour beetle) assessed as induction of repellency measured 4 hr post compound exposure at 0.00002 uL/cm2 using 15% compound formulation; assay type: functional; details: not given

Compound	Repellency [%]
CCCCN(CCC(=O)OCC)C(C)=O	-6
C=C(C)[C@H]1CC=C(C)C(=O)C1 [(S)(+)CARVONE]	-10
O=C(OCc1ccccc1)c1ccccc1 [BENZYL BENZOATE]	6
O=C(OCc1ccccc1)c1ccccc1O [BENZYL SALICYLATE]	-34
Cc1ccc(C(C)C)cc1O [CARVACROL]	5
CC(C)=CCC/C(C)=C/C=O [CITRAL]	21
CC(C)=CCCC(C)CCO (configuration not stated) [CITRONELLOL]	40
CC(C)=CCC/C(C)=C/CO [GERANIOL]	4
CC(=O)OC/C=C(\C)CCC=C(C)C [GERANYL ACETATE]	8
C=C(C)[C@@H]1CC=C(C)C(=O)C1 [L-CARVONE]	19
C=CC(=C)CCC=C(C)C [MYRCENE]	25
CC(C)=CCC/C(C)=C\CO [NEROL]	8
Cc1ccc(C(C)C)cc1 [P-CYMENE]	-5

tested on: Tribolium castaneum; assay: Repellent activity against Tribolium castaneum (red flour beetle) assessed as induction of repellency measured 2 hr post compound exposure at 0.002 uL/cm2 using 15% compound formulation; assay type: functional; details: not given

Compound	Repellency [%]
CCCCN(CCC(=O)OCC)C(C)=O	54
C=C(C)[C@H]1CC=C(C)C(=O)C1 [(S)(+)CARVONE]	53
O=C(OCc1ccccc1)c1ccccc1 [BENZYL BENZOATE]	16
O=C(OCc1ccccc1)c1ccccc1O [BENZYL SALICYLATE]	65
Cc1ccc(C(C)C)cc1O [CARVACROL]	-3
CC(C)=CCC/C(C)=C/C=O [CITRAL]	66
CC(C)=CCCC(C)CCO (configuration not stated) [CITRONELLOL]	59
CC(C)=CCC/C(C)=C/CO [GERANIOL]	64
CC(=O)OC/C=C(\C)CCC=C(C)C [GERANYL ACETATE]	21
C=C(C)[C@@H]1CC=C(C)C(=O)C1 [L-CARVONE]	55
C=CC(=C)CCC=C(C)C [MYRCENE]	56
CC(C)=CCC/C(C)=C\CO [NEROL]	64
Cc1ccc(C(C)C)cc1 [P-CYMENE]	43

tested on: Tribolium castaneum; assay: Repellent activity against Tribolium castaneum (red flour beetle) assessed as induction of repellency measured 4 hr post compound exposure at 0.02 uL/cm2 using 15% compound formulation; assay type: functional; details: not given

Compound	Repellency [%]
CCCCN(CCC(=O)OCC)C(C)=O	50
C=C(C)[C@H]1CC=C(C)C(=O)C1 [(S)(+)CARVONE]	85
O=C(OCc1ccccc1)c1ccccc1 [BENZYL BENZOATE]	44
O=C(OCc1ccccc1)c1ccccc1O [BENZYL SALICYLATE]	78
Cc1ccc(C(C)C)cc1O [CARVACROL]	48
CC(C)=CCC/C(C)=C/C=O [CITRAL]	79
CC(C)=CCCC(C)CCO (configuration not stated) [CITRONELLOL]	85
CC(C)=CCC/C(C)=C/CO [GERANIOL]	74
CC(=O)OC/C=C(\C)CCC=C(C)C [GERANYL ACETATE]	63
C=C(C)[C@@H]1CC=C(C)C(=O)C1 [L-CARVONE]	74
C=CC(=C)CCC=C(C)C [MYRCENE]	71
CC(C)=CCC/C(C)=C\CO [NEROL]	75
Cc1ccc(C(C)C)cc1 [P-CYMENE]	45

tested on: Tribolium castaneum; assay: Repellent activity against Tribolium castaneum (red flour beetle) assessed as induction of repellency measured 2 hr post compound exposure at 0.2 uL/cm2 using 15% compound formulation; assay type: functional; details: not given

Compound	Repellency [%]
CCCCN(CCC(=O)OCC)C(C)=O	78
C=C(C)[C@H]1CC=C(C)C(=O)C1 [(S)(+)CARVONE]	96
O=C(OCc1ccccc1)c1ccccc1 [BENZYL BENZOATE]	93
O=C(OCc1ccccc1)c1ccccc1O [BENZYL SALICYLATE]	94
Cc1ccc(C(C)C)cc1O [CARVACROL]	86
CC(C)=CCC/C(C)=C/C=O [CITRAL]	98
CC(C)=CCCC(C)CCO (configuration not stated) [CITRONELLOL]	96
CC(C)=CCC/C(C)=C/CO [GERANIOL]	98
CC(=O)OC/C=C(\C)CCC=C(C)C [GERANYL ACETATE]	95
C=C(C)[C@@H]1CC=C(C)C(=O)C1 [L-CARVONE]	100
C=CC(=C)CCC=C(C)C [MYRCENE]	85
CC(C)=CCC/C(C)=C\CO [NEROL]	98
Cc1ccc(C(C)C)cc1 [P-CYMENE]	74

tested on: not listed separately; assay: Lipophilicity, logP of the compound; assay type: physicochemical; details: octanol/water

logP	Compound
3.07	C=C(C)[C@H]1CC=C(C)C(=O)C1 [(S)(+)CARVONE]
3.47	CC(C)=CCC/C(C)=C\CO [NEROL]

tested on: Tribolium castaneum; assay: Repellent activity against Tribolium castaneum (red flour beetle) assessed as induction of repellency measured 2 hr post compound exposure at 0.00002 uL/cm2 using 15% compound formulation; assay type: functional; details: not given

Compound	Repellency [%]
CCCCN(CCC(=O)OCC)C(C)=O	2
C=C(C)[C@H]1CC=C(C)C(=O)C1 [(S)(+)CARVONE]	-10
O=C(OCc1ccccc1)c1ccccc1 [BENZYL BENZOATE]	3
O=C(OCc1ccccc1)c1ccccc1O [BENZYL SALICYLATE]	-29
Cc1ccc(C(C)C)cc1O [CARVACROL]	8
CC(C)=CCC/C(C)=C/C=O [CITRAL]	18
CC(C)=CCCC(C)CCO (configuration not stated) [CITRONELLOL]	30
CC(C)=CCC/C(C)=C/CO [GERANIOL]	6
CC(=O)OC/C=C(\C)CCC=C(C)C [GERANYL ACETATE]	5
C=C(C)[C@@H]1CC=C(C)C(=O)C1 [L-CARVONE]	21
C=CC(=C)CCC=C(C)C [MYRCENE]	28
CC(C)=CCC/C(C)=C\CO [NEROL]	8
Cc1ccc(C(C)C)cc1 [P-CYMENE]	-6

tested on: Tribolium castaneum; assay: Repellent activity against Tribolium castaneum (red flour beetle) assessed as induction of repellency measured 2 hr post compound exposure at 0.0002 uL/cm2 using 15% compound formulation; assay type: functional; details: not given

Compound	Repellency [%]
CCCCN(CCC(=O)OCC)C(C)=O	16
C=C(C)[C@H]1CC=C(C)C(=O)C1 [(S)(+)CARVONE]	45
O=C(OCc1ccccc1)c1ccccc1 [BENZYL BENZOATE]	14
O=C(OCc1ccccc1)c1ccccc1O [BENZYL SALICYLATE]	29
Cc1ccc(C(C)C)cc1O [CARVACROL]	9
CC(C)=CCC/C(C)=C/C=O [CITRAL]	64
CC(C)=CCCC(C)CCO (configuration not stated) [CITRONELLOL]	45
CC(C)=CCC/C(C)=C/CO [GERANIOL]	43
CC(=O)OC/C=C(\C)CCC=C(C)C [GERANYL ACETATE]	21
C=C(C)[C@@H]1CC=C(C)C(=O)C1 [L-CARVONE]	35
C=CC(=C)CCC=C(C)C [MYRCENE]	33
CC(C)=CCC/C(C)=C\CO [NEROL]	39
Cc1ccc(C(C)C)cc1 [P-CYMENE]	-10

tested on: Tribolium castaneum; assay: Repellent activity against Tribolium castaneum (red flour beetle) assessed as induction of repellency measured 2 hr post compound exposure at 0.02 uL/cm2 using 15% compound formulation; assay type: functional; details: not given

Compound	Repellency [%]
CCCCN(CCC(=O)OCC)C(C)=O	60
C=C(C)[C@H]1CC=C(C)C(=O)C1 [(S)(+)CARVONE]	91
O=C(OCc1ccccc1)c1ccccc1 [BENZYL BENZOATE]	44
O=C(OCc1ccccc1)c1ccccc1O [BENZYL SALICYLATE]	74
Cc1ccc(C(C)C)cc1O [CARVACROL]	46
CC(C)=CCC/C(C)=C/C=O [CITRAL]	89
CC(C)=CCCC(C)CCO (configuration not stated) [CITRONELLOL]	74
CC(C)=CCC/C(C)=C/CO [GERANIOL]	75
CC(=O)OC/C=C(\C)CCC=C(C)C [GERANYL ACETATE]	60
C=C(C)[C@@H]1CC=C(C)C(=O)C1 [L-CARVONE]	84
C=CC(=C)CCC=C(C)C [MYRCENE]	61
CC(C)=CCC/C(C)=C\CO [NEROL]	84
Cc1ccc(C(C)C)cc1 [P-CYMENE]	61
